In brackets after ≈: the same amount, converted by molar mass.
What was measured:
[1] = tested on: Human colon cancer (HCT116); test: XTT cytotoxicity assay, HCT116; format: cell-based; conditions: for IC50: HCT-116; for CC50: HCT-116, read-out: LC50 (the source's name)
[2] = tested on: HCT116 human colon cancer xenograft; test: tumor xenograft size, HCT116; format: in vivo, Athymic Nude mice; conditions: Study 101707, HCT-116, oral b.i.d. 16 days
Method: Xenograft studies were performed using various mmFAS inhibitors disclosed herein. Human cancer xenograft studies are known in the art. (See Pizer et al., Cancer Res. 56:1189-1193, 1996; Pizer et al., Cancer Res. 60: 213-218, 2000; Testa et al., Oncogene 24: 7455-7464, 2005).
In particular, C31 mouse efficacy studies were conducted in order to evaluate anti-neoplastic activity of C31 in vivo. Athymic Nude mice were implanted with HCT116 human colon, SKOV3 human ovarian or OVCAR3 human ovarian cancer cell lines and were treated when the grown tumor xenografts reached at least 150 to 200 mm^3.^1 ^1 Compounds were solubilized in TEP (80% polyethylene glycol (PEG) 400, 10% ethanol, 10% tween-80) in a volume of 50 μL.

[3] = tested on: Human ovarian cancer (OVCAR); test: XTT cytotoxicity assay, OVCAR; format: cell-based; conditions: for CC50: read-out: LC50 (the source's name)
Method: (See, e.g., Rothman, S., J Clin. Pathol. 39: 672-676, 1986). For example, to measure the cytotoxicity of a test compound against cancer cells, cells (e.g., SKOV-3 cells or OVCAR-3) are plated in 96-well plates. Following overnight culture, the compound is added to the cells at specified concentrations. After 72 hours of incubation, cells are incubated for 4 hours with the XTT reagent as per manufacturer's instructions (Cell Proliferation Kit II (XTT) Roche Diagnostics, New Jersey), and the amount of color produced by viable cells is measured spectrophotometrically. […] is calculated by linear regression, plotting the color produced in treated cells as percent of control (untreated) cells versus drug concentrations.
(§1) Cytotoxicity can be easily measured using XTT assays, which provide an indication of mitochondrial activity. The XTT assay is a non-radioactive alternative for the [^51Cr] release cytotoxicity assay. XTT is a tetrazolium salt that is reduced to a formazan dye only by metabolically active, viable cells. The reduction of XTT is measured spectrophotometrically as OD490-OD650. Thus, cells that are actively metabolizing will form reaction product when subjected to XTT measurement.
(§2) For this experiment, cells were cultured under standard culture conditions. MCF7 human breast cancer cells were cultured in DMEM containing 5 mM glucose medium with 10% fetal calf serum, 0.01 mg/ml insulin and 1% penicillin/streptomycin. To measure the cytotoxicity of specific compounds against cancer cells, 9×10^3 MCF7 cells were plated per well in 96-well plates. Following overnight culture, the compounds, dissolved in DMSO, were added to the wells in 1 μl volume at specified concentrations. Vehicle controls were run for each experiment. Each condition was run in triplicate. After 24 to 72 h of incubation, cells were incubated for 4 hours with the XTT reagent as per manufacturer's instructions (Cell Proliferation Kit II (XTT) Roche Diagnostics, New Jersey). Plates were read at OD490 on a PerkinElmer Victor 1420. Three wells containing the XTT reagent without cells served as the plate blank. XTT data were reported as OD490.

[4] = tested on: MCF7 human breast cancer cells; test: XTT cytotoxicity assay, MCF7; format: cell-based; conditions: Homo sapiens, MCF7, XTT, MCF-7; for CC50: read-out: LC50 (the source's name)
Method: as §1, §2
MCF7 human breast cancer cells were cultured in DMEM containing 1 mM or 5 mM glucose in the medium with 10% fetal calf serum, 0.01 mg/ml insulin and 1% penicillin/streptomycin. The cells were grown in two oxygen conditions, normoxia (21% 02) or hypoxia (1% 02). To measure the cytotoxicity of specific compounds against cancer cells, 9×10^3 MCF7 cells were plated per well in 96-well plates. Following overnight culture, the compounds, dissolved in DMSO, were added to the wells in 1 μl volume at specified concentrations. After 24 to 72 h of incubation, cells were incubated for 4 h with the XTT reagent as per manufacturer's instructions (Cell Proliferation Kit II (XTT) Roche Diagnostics, New Jersey). Plates were read at OD490 on a PerkinElmer Victor 1420. Three wells containing the XTT reagent without cells served as the plate blank. XTT data were reported as OD490Vehicle controls were run for each experiment. Each condition was run in triplicate.

MCF7 cells = test: 14C-acetate incorporation into lipids in MCF7 cells; format: cell-based, human; conditions: Homo sapiens; MCF7 cells, second experiment
Method: (§3) MCF7 human breast cancer cells (a cell line which overexpresses FAS) were cultured in DMEM containing 5 mM glucose medium with 10% fetal calf serum, 0.01 mg/ml insulin and 1% penicillin/streptomycin. For measurement of fatty acid synthesis cells were cultured in 24-well plates at 5×10^4 per well and incubated overnight. Fatty acid synthesis was assayed by a 2 h pulse of [U^14C]acetate, 1 μCi/well, followed by Folch extraction and scintillation counting. Test compounds were added with the addition of drugs as described. Controls were treated with DMSO alone.
as §3, with “cells” for “cells (a cell line which overexpresses FAS)”, “containing 1 mM or” for “containing”, “glucose in the” for “glucose”, “penicillin/streptomycin. The cells were grown in two oxygen conditions, normoxia (21% 02) or hypoxia (1% 02).” for “penicillin/streptomycin.”, “counting” for “counting. Test compounds were added”

[5] = tested on: SKOV3 human ovarian cancer cells; test: JC-1 staining, mitochondrial membrane potential in SKOV3 cells; format: cell-based; conditions: SKOV3, drug in DMSO applied 30 min prior to staining
Text: JC-1 staining is an indicator of mitochondrial membrane potential; with this assay, mitochondria within cells stained with this fluorescent dye emit a wavelength in the red spectrum when mitochondrial membrane potential is intact. When mitochondria are depolarized, the wavelength of the spectrum emitted changes to green. Therefore, the ratio of red/green fluorescence will give an indication of the intactness of the membrane potential of mitochondria, and thus mitochondrial function.
The left panels show granular red-staining indicating mitochondria with intact membrane potential is brightest in control, and decreases with increasing concentrations of C31. Conversely, the right panels show the diffuse cytoplasmic green-staining which indicates mitochondrial depolarization, is dimmest in control and brightest at the highest concentration of C31 tested. Drug was solubilized in DMSO and applied for 30 min prior to staining.

mitochondrial FAS = test: 14C-malonate incorporation into mitochondrial fatty acids, mitochondria isolated from rat liver; format: biochemical; conditions: FIG. 3
Method: Mammalian mitochondrial FAS activity may be determined in a variety of ways. For example, [14C]malonate may be added to isolated mitochondria, fatty acids are extracted, and then radioactivity is tested. (See Zhang et al., J. Bio. Chem. 278(41): 40067-40074, 2003; Mikolajczyk, J. and Brody, S., Eur. J. Biochem. 187: 431-437, 1990). The mitochondria are purified using methods known in the art. (See Qiagen's Qproteome Mitochondria Isolation Kit; Methods in Enzymology, Vol. 10, Chapter 11, 1967). To test the inhibition of mmFAS activity, a test compound is added to the reaction mixture. Therefore, a test compound may be screened according the methods described herein as follows: (i) isolating mitochondria; (ii) incubating mitochondria with [14C]malonate with and without a test compound; and (iii) determining the quantity of lipids and/or fatty acids produced. By comparing the amount of product in the presence of the test compound to the amount in its absence, the degree of inhibition can be determined.
Mitochondria from MCF7 cells were prepared following manufacturer's protocol (Mitochondria Isolation Kit, Sigma, Saint Louis, Mo.). Rat liver mitochondria were isolated by homogenization with a tissue homogenizer in H-medium (220 mM mannitol, 70 mM sucrose, 2 mM HEPES, and 0.5 g/L of fatty acid free bovine serum albumin, pH 7.4). The homogenate was centrifuged at 1100 g for 3 min and washed twice with H-medium. The supernatants were pooled and centrifuged at 6800 g for 15 min. The pellet was then rinsed again and centrifuged at 3000 g for 3 min. The mitochondria supernatants were saved. The sediments were resuspended in H-medium and centrifuged at 3000 g for 3 min. The mitochondria supernatants were combined and centrifuged at 20,000 g for 15 min. The resulting mitochondria pellet were rinsed and centrifuged again at 20,000 g for 20 min.
Isolated mitochondria (100-200 μg) were mixed with 50 mM TES-KOH (pH 7.2), 10 mM MgCl2, 0.3 M sorbitol, 0.1% BSA, 1 mM each of ATP, ADP, NADH, NADPH, CoA, DTT and 1 μCi of [2-^14C]malonic acid (50 mCi/mmol) in a total volume of 200 μl. The reaction was performed for 30 min at room temperature. C31, Riv7d or vehicle were added at the beginning of this reaction. At the end of 30 minutes, the mitochondria pellet was separated from supernatant by centrifugation at 14000 rpm for 5 min. After washing with 500 μl of 50 mM TES-KOH (pH 7.2) and 0.3 M sorbitol, the mitochondria were incubated in 200 μl of H2O and 20 μl of 10 M KOH for 15 min at 65° C. Then the samples were added with 40 μl of 5 M H2SO4 and 20 μl of 1 mM palmitic acid (in 1 M acetic acid in isopropanol). The ^14C labeled fatty acids were twice extracted with hexane and sent to scintillation counting after drying.

In the case of CCCCCCCCC1(C)SC(=O)C=C1OCC(=O)Nc1ccc(C(F)(F)F)cc1 (centres unmarked) [Compound C144], the IC50 [1] is reported as 4.8 µg/mL (≈ 10.8 µM), the CC50 [1] is reported as 10.8 µM and the “Average Tumor Size Endpoint (% Change)” value ([2]; 53 mg/kg) is reported as −91 % Change. It also gave an IC50 [3] of 4 µg/mL (≈ 9.02 µM), a CC50 [3] of 9 µM and an IC50 [4] of 2.2 µg/mL (≈ 4.96 µM). For the same molecule, the CC50 [4] was 4.9 µM, the IC50 (MCF7 cells) was > 5.6 µM and the “mitochondrial depolarization (JC-1 staining)” value [5] was “depolarization of the mitochondria in the SKOV3 human ovarian cancer cells which is dose-dependent”.

With CCCCCCCCC1(C)SC(=O)C=C1OCC(=O)Nc1ccc(OC(F)(F)F)cc1 (centres unmarked) [Compound C145] the IC50 [1] was 3.5 µg/mL (≈ 7.62 µM), the CC50 [1] was 7.6 µM and the “Average Tumor Size Endpoint (% Change)” value ([2]; 55 mg/kg) was “+236 % Change”. It also gave an IC50 [3] of 3.3 µg/mL (≈ 7.18 µM), a CC50 [3] of 7.2 µM and an IC50 [4] of 1.8 µg/mL (≈ 3.92 µM). For the same molecule, the CC50 [4] was 3.9 µM, the IC50 (MCF7 cells) was 17.8 µM and the “mitochondrial depolarization (JC-1 staining)” value [5] was “depolarization of the mitochondria in the SKOV3 human ovarian cancer cells which is dose-dependent”.

For Oc1cc(Cl)ccc1Oc1ccc(Cl)cc1Cl [Triclosan, triclosan, reference compound], the “IC50, inhibition of mitochondrial FAS (14C-malonate incorporation)” value (mitochondrial FAS; isolated mitochondria) was 3 μg per mL and the “effect on 14C-malonate incorporation into mitochondrial fatty acids” value (mitochondrial FAS; mitochondria isolated from rat liver) was “inhibitory effect”.

From patent US20140243401A1, “METHODS OF SCREENING COMPOUNDS THAT ARE CYTOTOXIC TO TUMOR CELLS AND METHODS OF TREATING TUMOR CELLS USING SUCH COMPOUND” (The Johns Hopkins University, priority 2010, published 2014)
